Columns and labels:
[1] = tested on: mouse triple-negative breast cancer EMT6 cell line; assay: In-vivo drug efficacy study 1: EMT6 transplanted BALB/c mouse model, tumor volume; details: for Tumor volume Day 0: Day 0 (start of dosing)
Description: To evaluate the tumor immunotherapeutic effect of test drugs in the mouse triple-negative breast cancer EMT6 cell line (EMT6 is from ATCC, cell No.: CRL-2755) transplanted BALB/c mouse model.
BALB/c mice, female, 6-7 weeks old, weighing about 19.1-22.6 g, were housed in separated ventilated boxes with constant temperature and humidity. The feeding room was under the following conditions: temperature: 20-26° C., humidity: 40-70%, ventilation: 10-20 times/h, and light/dark cycle: 12 h/12 h. The Co-60 radiation-sterilized complete pellet feed for mice was supplied continuously and can be taken freely without limitation, and the drinking tap water (used after autoclaving) was supplied continuously by the water bottle and can be taken freely. A total of 144 mice purchased from Shanghai Lingchang Biotechnology Co., Ltd. were used for the study. The BALB/c mice were inoculated with EMT6 cells subcutaneously to establish murine breast cancer models with subcutaneously-transplanted tumors. The mice were administered when the mean tumor volume reached about 97.3 mm^3. The test compounds were administered orally once every 3 days at a dose of 50 mg/kg. PD1 mAb (from BioXcell, cat No.: BP0146, batch No.: 695318A1B, clone No.: RMP1-14) was administered intraperitoneally once every 3 days at a dose of 10 mg/kg. Tumor volume was measured every 3 days with a two-dimensional caliper, and the volume was measured in mm^3 and calculated according to the following formula: V=0.5 a×b^2, where a and b are the long and short diameters, respectively, of the tumor. Anti-tumor efficacy was determined by dividing the mean tumor increase volume of compound-treated animals by the mean tumor increase volume of untreated animals.

[2] = tested on: mouse colon cancer MC38 cell line; assay: In vivo efficacy study 2: MC38 transplanted BALB/c mouse model, tumor volume; details: combination Example 2 50 mg/kg orally twice a week + Anti-PD1 10 mg/kg intravenously once a week, MC38, BALB/c mice
Text: To evaluate the tumor immunotherapeutic effect of test drugs in the mouse colon cancer MC38 cell line (from Obio Technology (Shanghai) Co., Ltd.) transplanted BALB/c mouse model.
BALB/c mice, female, 6-7 weeks old, weighing about 18-22 g, were kept in a special pathogen-free environment and in separated ventilated cages (3-5 mice per cage). All cages, bedding and water were disinfected prior to use. All animals had free access to standard certified commercial laboratory diets. A total of 48 mice purchased from Shanghai Slac Laboratory Animal Co., Ltd. were enrolled. Each mouse was implanted subcutaneously in the right flank with mouse colon cancer MC38 cells (2×10^5 cells in 0.1 mL of phosphate buffered saline) for tumor growth. The mice were administered when the mean tumor volume reached about 70 mm^3. Test compounds were administered orally twice a week (morning and afternoon) at a dose of 50 mg/kg; PD-1 antibody (from BioXcell, cat. No.: BP0146, batch No.: 640517M2B) was administered intravenously once a week at a dose of 10 mg/kg. Tumor volume was measured […] with a two-dimensional caliper, and the volume was measured in mm^3 and calculated according to the following formula: V=0.5 a×b^2, where a and b are the long and short diameters, respectively, of the tumor. Anti-tumor efficacy was determined by dividing the mean tumor increase volume of compound-treated animals by the mean tumor increase volume of untreated animals.

[3] = Example 2 alone, 50 mg/kg orally once every 3 days, EMT6 subcutaneous, BALB/c mice
[4] = combination Example 2 50 mg/kg orally + Anti-PD1 10 mg/kg intraperitoneally, each once every 3 days, EMT6, BALB/c mice

Question: With CN[C@@H](C)C(=O)N[C@H](C(=O)N1CCC[C@H]1Cn1cc(C(C)=O)c2cc(Cl)ccc21)C1CCCCC1 [Example 2] as the compound, how does the “Tumor volume Day 0” value [1, 3] read?
Answer: Its value is 97.3 mm^3.

Question: And the “Tumor volume Day 7” value [1, 3]?
Answer: Its value is 355.5 mm^3.

Question: And the “Tumor volume Day 14” value [1, 3]?
Answer: Its value is 1097.7 mm^3.

Question: And the “Tumor volume Day 25” value [1, 3]?
Answer: The value was 2225.8 mm^3.

Question: And the “Tumor volume Day 0” value [1, 4]?
Answer: Its value is 97.3 mm^3.

Question: What about the “Tumor volume Day 7” value [1, 4] of the same compound?
Answer: Its value is 332.4 mm^3.

Question: What about the “Tumor volume Day 14” value [1, 4] of the same compound?
Answer: Its value is 174.2 mm^3.

Question: What about the “Tumor volume Day 25” value [1, 4] of the same compound?
Answer: Its value is 31.5 mm^3.

Question: What about the “Tumor volume Day 0” value ([2]; Day 0 (start of dosing)) of the same compound?
Answer: The value was 51.6 mm^3.

Question: What about the “Tumor volume Day 5” value ([2]; Day 5) of the same compound?
Answer: The value was 140.7 mm^3.

Question: And the “Tumor volume Day 12” value ([2]; Day 12)?
Answer: Its value is 215.5 mm^3.

Question: What about the “Tumor volume Day 20” value ([2]; Day 20) of the same compound?
Answer: Its value is 427.1 mm^3.

From patent US20220175917A1, “COMBINATION OF IAP INHIBITOR AND IMMUNE CHECKPOINT INHIBITOR” (CHIA TAI TIANQING PHARMACEUTICAL GROUP CO., LTD., priority 2019, published 2022)
